Measured values taken from publication PMC4361473, “A New System for Profiling Drug-Induced Calcium Signal Perturbation in Human Embryonic Stem Cell–Derived Cardiomyocytes” (Journal of Biomolecular Screening, 2015).
Read-outs that look alike come from different tables or passages of the source. Each block holds one molecule with its values, some of them ahead of it.

Assays:
Cytiva hSCCMs [1] = assay: SALVO profiling of drug-evoked Ca2+ signal perturbation (fluo-4 confocal imaging); settings: for EC20 AHI: 20% change from control in amplitude heterogeneity index; for EC20 AHI / EC20 Synch / EC20 ITN / EC20 THI / EC20 Rate: regression of Figure 3 data; for EC20 Synch: 20% change from control in intercellular synchronization; for EC20 ITN: 20% change from control in intertransient noise; for EC20 THI: 20% change from control in temporal heterogeneity index; for PPS rank order: PPS = ETPCunbound/EC20; for EC20 Rate: drug concentration producing a 20% change from control (no drug) in Ca2+ oscillation rate; for SALVO toxicity score, rank order of the extent of Ca2+ perturbation: five-parameter SALVO output integrated over 0.1-1000 nM, normalized to control; for Effect on Ca2+ handling (SALVO parameters): concentrations up to 30 µM
Description: Cytiva hSCCMs were derived from monolayer differentiation of an H7 hESC cell line that had been expanded under feeder-free conditions and then subjected to a proprietary differentiation protocol (GE Healthcare, Piscataway, NJ, USA).[13] […] Cells were thawed and seeded into 7-mm^2 chambers created by the adherence of silicon gaskets (CultureWell MultiWell 3 mm in diameter, 1-mm-depth inserts [Life Technologies]) on glass-bottomed culture chambers (In Vitro Scientific, Sunnyvale, CA, USA) that had been precoated with Matrigel (BD Biosciences, Franklin Lakes, NJ, USA), Franklin Lakes, NJ, USA diluted 1:30 (v/v) in Knockout DMEM (Life Technologies, Carlsbad, CA, USA). […] Cells were allowed to adhere to the coverslip for 2 h before the dish was filled with RPMI/B27 (2 mL). Medium was exchanged every 48 h.
Cells were incubated with fluo-4 AM (5 µM) (Life Technologies) for 1 h at 37°C before coverslips were flooded with RPMI/B27 (2 mL). […] Cells were maintained at 37 °C throughout experiments. […] The application of caffeine (5 mM final concentration) was used to trigger sarcoplasmic reticulum (SR) Ca^2+ release and thereby estimate the intra-SR Ca^2+ store load.
Taking our lead from Uhlen’s method of using spectral analysis to investigate the organization of Ca^2+ signals,[14] we developed SALVO to decode the spatiotemporal patterning of Ca^2+ oscillations within individual cells and across multicellular populations. SALVO outputs 30 parameters that describe Ca^2+ signal organization,[15] but for the purposes of this study, we focused on five parameters: oscillation rate (rate, Hz) and four other parameters that quantify the amplitude and temporal patterning of Ca^2+ oscillation: (1) amplitude heterogeneity index (AHI) and (2) temporal heterogeneity index (THI), statistical assessments of signal amplitude and temporal variability within single cells, respectively; (3) intertransient noise (ITN), defined as the Ca^2+ signal variability occurring between Ca^2+ oscillations and that extends the use of signal variability (SV) to measure point-by-point differences in very low-amplitude Ca^2+ signals[6],[10],[12]; and (4) synchronization, an index of the temporal coincidence of Ca^2+ oscillation maxima occurring across cells in the population. The calculation of these parameters is described in Supplementary Figure S1. SALVO is implemented using a Python-based computer program.[15] The detection of signal maxima and minima over a 30-s period in data obtained from 6 to 20 cells in each instance was performed using SALVO’s autodetection algorithms (based on spline detect or threshold detection methods) or by manual assignation of the start, peak, and end of each Ca^2+ spike. SALVO outputs were archived and interrogated using a custom-built SQL-based database system (DB Miner, CHG, NCS, SBJ).
Baseline assessments of Ca^2+ signals in fluo-4–loaded cells prior to the addition of drug (control) were established as described above.
After each addition and following a period of equilibration (approximately 90 s), fluo-4–dependent Ca^2+ signals were acquired for 30 s. Using this protocol, the same population of cells was imaged throughout the entire drug addition sequence.
In all experiments, operators were blinded to the identities of the drugs under test throughout all phases of postexperimental data analysis.
Supplementary Table 2. EC20 values for Ca2+ perturbation.
Drug concentrations (nM) that produced a 20% change from control values (no drug) were calculated for each SALVO parameter from regression analysis of […]
The effective therapeutic plasma concentration of free drug (ETPCunbound, nM) was calculated in Supplementary Table 1.
Calculate percentage effect size (E) for each SALVO parameter, normalized to Ew = E x λ control conditions, at each drug concentration Effect size (E,%) λ
Cumulative Ew for drug concentrations of 0.1, 1, 10, 100 and 1000 nM for The relationship between E and λ is given by […]

Cytiva hSCCMs [2] = assay: Whole-cell current-clamp recording of spontaneous action potentials (APD90); type: cell-based, human; settings: drug at EC20 concentration, 3 min; Fridericia-corrected; blebbistatin-immobilized cells
Procedure: Cells in 35-mm glass-bottomed culture dishes containing a superfusion insert (AutoMate PCP-1; Digitimer Ltd., Welwyn Garden City, UK) were mounted on the stage of an inverted microscope (CKX-41; Olympus, Tokyo, Japan) and were superfused with normal Tyrode (NT) solution (containing [in mM] NaCl, KCl, MgCl2 [1], CaCl2 [2], HEPES [10], glucose; pH 7.4 with NaOH) or NT-containing drugs maintained at 37 °C using a heated jacket.
Cells were whole-cell clamped with 3- to 4-MΩ patches and an intrapipette solution (containing in [mM] KCl, MgCl2 [1.75], CaCl2 [5.37], EGTA [10], HEPES [10], and Na2ATP [4]; pH 7.2 with KOH) in current-clamp (IC) mode using a CV-7B headstage and MultiClamp 700B amplifier controlled by MultiClamp software (Molecular Devices, Sunnyvale, CA). Data were digitized and acquired using a Digidata 1322a card and pClamp software, respectively (Molecular Devices). Action potentials were sampled at a rate of 20 kHz and low pass (Bessel) filtered at 10 kHz.
Spontaneous cell contracture was terminated using blebbistatin (5 µM, 10 min), an agent that inhibits myofilament shortening and thereby negates patch-clamp recording instability but preserves normal Ca^2+ cycling.[20] […] Action potential (AP) recordings from blebbistatin-immobilized cells were taken under control (no-drug) conditions (1 min) and following the switch to drug-containing NT. APD90, corrected for AP cycle length using Fridericia’s method (APD90(corr) = APD90/cycle length^[…]), was calculated from five consecutive APs following a 3-min exposure of the cells to drug.
Figure 4. Investigating the effect of cardiovascular-active drugs on Cytiva APD90. (A) Cells were exposed to drugs at EC20 concentrations for 3 min (Suppl. Table S2). APD90 values were corrected for beat period using Fridericia’s algorithm. Data points represent individual paired experiments (n = 6). Representative control (gray) and drug-treated (black) action potential traces are shown. (B) APD90 plotted as the percentage change relative to the paired control value (no drug). *p < 0.05. **p < 0.01.

[3] = Effective therapeutic plasma concentration (ETPC, ETPCunbound); type: in vivo, human; settings: free plasma concentration calculated from ETPC and free drug %, Supplementary Table 1
Description: There is also the issue regarding the relevance of drug potency determined in vitro to clinical dosing in humans. Guo and colleagues[25],[27] used an impedance-derived index of arrhythmic beating in hSCCMs to derive a predicted proarrhythmic score (PPS) that took into account the therapeutically relevant total concentration of drug in human plasma (defined as Ceff). More recently, Clements and Thomas[13] used a similar approach to generate a predictive risk score (PRS) based on their measurement of field potential duration (FPD) in Cytiva.
Supplementary Table 1. Calculating the free plasma concentration of […]
described by Redfern et al. (Redfern et al. (2003) Cardiovasc. Res. 58:32-45) was used to calculate the levels of free drug (ETPCunbound). ETPC for nadolol and valdecoxib were from Krukemyer et al. (Pharm. Res. (1990) 9:953-956) and Yuan et al. (Drug Metab. Disp. (2002) 30:1013-1021), respectively. The values for drug-protein binding were obtained from DrugBank (www.drugbank.ca).

[4] = maximal effective therapeutic plasma concentration, cited from earlier work
[5] = parameters: method as in DrugBank (www.drugbank.ca); settings: from drug-protein binding values; ref DrugBank (www.drugbank.ca); cited from earlier work
[6] = categories assigned by Redfern and colleagues; cited from earlier work
[7] = spontaneously oscillating Cytiva

PPS rank order (Cytiva hSCCMs [1]): thioridazine > cisapride > valdecoxib | Effect on APD90 (action potential duration) (Cytiva hSCCMs [2]): increased APD90 | ETPCunbound [3]: 3 nM
Compound: COc1cc(N)c(Cl)cc1C(=O)NC1CCN(CCCOc2ccc(F)cc2)CC1OC (stereo not shown) [Cisapride, cisapride]
EC20 AHI (Cytiva hSCCMs [1]): 40 nM | EC20 Synch (Cytiva hSCCMs [1]): 5 nM | EC20 ITN (Cytiva hSCCMs [1]): > 30000 nM | EC20 THI (Cytiva hSCCMs [1]): 105 nM | EC20 Rate (Cytiva hSCCMs [1]): 445 nM | SALVO toxicity score, rank order of the extent of Ca2+ perturbation (Cytiva hSCCMs [1]): astemizole > thioridazine > cisapride > flecainide > valdecoxib > sotalol > nadolol | Effect on Ca2+ handling (SALVO parameters) (Cytiva hSCCMs [1]; [7]): large effect sizes in multiple parameters | ETPC ([4]; ref Redfern et al. (2003) Cardiovasc. Res. 58:32-45): 129 nM | Free drug [5]: 2% | TdP risk category [6]: category 2

Compound: CCCCc1oc2ccccc2c1C(=O)c1cc(I)c(OCCN(CC)CC)c(I)c1 [amiodarone]
TdP risk category [6]: category 1

PPS rank order (Cytiva hSCCMs [1]): thioridazine > cisapride > valdecoxib | Effect on APD90 (action potential duration) (Cytiva hSCCMs [2]): increased APD90 | ETPCunbound [3]: 89 nM
Compound: CSc1ccc2c(c1)N(CCC1CCCCN1C)c1ccccc1S2 (stereo not shown) [Thioridazine, thioridazine]
EC20 AHI (Cytiva hSCCMs [1]): 205 nM | EC20 Synch (Cytiva hSCCMs [1]): 120 nM | EC20 ITN (Cytiva hSCCMs [1]): 110 nM | EC20 THI (Cytiva hSCCMs [1]): 530 nM | EC20 Rate (Cytiva hSCCMs [1]): 1120 nM | SALVO toxicity score, rank order of the extent of Ca2+ perturbation (Cytiva hSCCMs [1]): astemizole > thioridazine > cisapride > flecainide > valdecoxib > sotalol > nadolol | Effect on Ca2+ handling (SALVO parameters) (Cytiva hSCCMs [1]; [7]): large effect sizes in multiple parameters

Compound: COc1ccccc1OCC(O)CN1CCN(CC(=O)Nc2c(C)cccc2C)CC1 (stereo not shown) [Ranolazine, ranolazine]
Effect on intercellular synchronization (Cytiva hSCCMs [1]; [7]): reduced intercellular synchronization | Effect on Ca2+ handling (SALVO parameters) (Cytiva hSCCMs [1]; [7]): unchanged Ca^2+ cycling

ETPCunbound [3]: 271 nM
Compound: CC(C)(C)NCC(O)COc1cccc2c1CC(O)C(O)C2 (stereo not shown) [Nadolol, nadolol]
EC20 AHI (Cytiva hSCCMs [1]): > 30000 nM | EC20 Synch (Cytiva hSCCMs [1]): > 30000 nM | EC20 ITN (Cytiva hSCCMs [1]): > 30000 nM | EC20 THI (Cytiva hSCCMs [1]): > 30000 nM | EC20 Rate (Cytiva hSCCMs [1]): > 30000 nM | SALVO toxicity score, rank order of the extent of Ca2+ perturbation (Cytiva hSCCMs [1]): astemizole > thioridazine > cisapride > flecainide > valdecoxib > sotalol > nadolol | Effect on Ca2+ handling (SALVO parameters) (Cytiva hSCCMs [1]; [7]): no measurable effect | ETPC ([4]; ref Krukemyer et al. (Pharm. Res. (1990) 9:953-956)): 387 nM | Free drug [5]: 70% | TdP risk category [6]: category 5
